Measurements as given in patent publication US6114310A, “Efflux pump inhibitors” (priority 1998, dated 2000).

System: Pseudomonas aeruginosa PAM1001
Assay: microbe, parasite or virus in culture
Assay type: cell-based
Method: The activity of efflux pump inhibitors (EPI) in combination with fluoroquinolones, such as levofloxacin, is assessed by the checkerboard assay (Antimicrobial Combinations. In Antibiotics in Laboratory Medicine, Ed. Victor Lorian, M. D., Fourth edition, 1996, pp 333-338) using broth microdilution method performed as recommended by the NCCLS (National Committee for Clinical Laboratory Standards (NCCLS). 1997. Methods for Dilution of Antimicrobial Susceptibility Tests for Bacteria That Grow Aerobically--Fourth Edition; Approved Standard. NCCLS Document M7-A4, Vol 17 No.2). The test organism used is Pseudomonas aeruginosa PAM1001.
In this assay, multiple dilutions of two drugs, namely the EPI and levofloxacin, are being tested, alone and in combination, at concentrations equal to, above and below their respective minimal inhibitory concentrations (MICs).
Stock solutions are further diluted, according to the needs of a particular assay, in Mueller Hinton Broth (MHB). Stock solution can be stored at -80° C. Quinolones are solubilized according to the instructions of the manufacturers, at a concentration of 1 mg/ml. They are then further diluted in MHB. Stock solution can be stored at -80° C.
The checkerboard assay is performed in microtiter plates. Levofloxacin is diluted in the x axis, each column containing a single concentration of levofloxacin. The EPI is diluted in the y axis, each row containing an equal concentration of EPI. The result of these manipulations is that each well of the microtiter plate contains a unique combination of concentrations of the two agents. Each EPI are tested independently.
The assay is performed in MHB with a final bacterial inoculum of 5×10^5 CFU/ml (from an early-log phase culture). Microtiter plates are incubated during 20 h at 35° C. and are read using a microtiterplate reader (Molecular Devices) at 650 nm as well as visual observation using a microtiterplate reading mirror.

[1] = Table 1, EPI Conc. μg/ml (number not given; column between 10 and 40 μg/ml)
[2] = Table 2, EPI Conc. μg/ml (number not given; column between 10 and 40 μg/ml)
[3] = Table 3, EPI Conc. μg/ml (number not given; column between 10 and 40 μg/ml)
[4] = Table 4, EPI Conc. μg/ml (number not given; column between 10 and 40 μg/ml)

| Substance | Levofloxacin MIC Against P. aeruginosa PAM1001 in Presence of Efflux Pump Inhibitor (EPI), Minimum Inhibitory Concentration (Table 1, EPI Conc. 0 μg/ml) | Levofloxacin MIC Against P. aeruginosa PAM1001 in Presence of Efflux Pump Inhibitor (EPI), Minimum Inhibitory Concentration (Table 1, EPI Conc. 0.625 μg/ml) | Levofloxacin MIC Against P. aeruginosa PAM1001 in Presence of Efflux Pump Inhibitor (EPI), Minimum Inhibitory Concentration (Table 1, EPI Conc. 5 μg/ml) | Levofloxacin MIC Against P. aeruginosa PAM1001 in Presence of Efflux Pump Inhibitor (EPI), Minimum Inhibitory Concentration (Table 1, EPI Conc. 10 μg/ml) | Levofloxacin MIC Against P. aeruginosa PAM1001 in Presence of Efflux Pump Inhibitor (EPI), Minimum Inhibitory Concentration (Table 1, EPI Conc. 40 μg/ml) | Levofloxacin MIC Against P. aeruginosa PAM1001 in Presence of Efflux Pump Inhibitor (EPI), Minimum Inhibitory Concentration (Table 1, EPI Conc. […]) | Levofloxacin MIC Against P. aeruginosa PAM1001 in Presence of Efflux Pump Inhibitor (EPI), Minimum Inhibitory Concentration [1] | Levofloxacin MIC Against P. aeruginosa PAM1001 in Presence of Efflux Pump Inhibitor (EPI), Minimum Inhibitory Concentration (Table 2, EPI Conc. 0 μg/ml) | Levofloxacin MIC Against P. aeruginosa PAM1001 in Presence of Efflux Pump Inhibitor (EPI), Minimum Inhibitory Concentration (Table 2, EPI Conc. 0.625 μg/ml) | Levofloxacin MIC Against P. aeruginosa PAM1001 in Presence of Efflux Pump Inhibitor (EPI), Minimum Inhibitory Concentration (Table 2, EPI Conc. 5 μg/ml) | Levofloxacin MIC Against P. aeruginosa PAM1001 in Presence of Efflux Pump Inhibitor (EPI), Minimum Inhibitory Concentration (Table 2, EPI Conc. 10 μg/ml) | Levofloxacin MIC Against P. aeruginosa PAM1001 in Presence of Efflux Pump Inhibitor (EPI), Minimum Inhibitory Concentration (Table 2, EPI Conc. 40 μg/ml) | Levofloxacin MIC Against P. aeruginosa PAM1001 in Presence of Efflux Pump Inhibitor (EPI), Minimum Inhibitory Concentration [2] | Levofloxacin MIC Against P. aeruginosa PAM1001 in Presence of Efflux Pump Inhibitor (EPI), Minimum Inhibitory Concentration (Table 3, EPI Conc. 0 μg/ml) | Levofloxacin MIC Against P. aeruginosa PAM1001 in Presence of Efflux Pump Inhibitor (EPI), Minimum Inhibitory Concentration (Table 3, EPI Conc. 0.625 μg/ml) | Levofloxacin MIC Against P. aeruginosa PAM1001 in Presence of Efflux Pump Inhibitor (EPI), Minimum Inhibitory Concentration (Table 3, EPI Conc. 5 μg/ml) | Levofloxacin MIC Against P. aeruginosa PAM1001 in Presence of Efflux Pump Inhibitor (EPI), Minimum Inhibitory Concentration (Table 3, EPI Conc. 10 μg/ml) | Levofloxacin MIC Against P. aeruginosa PAM1001 in Presence of Efflux Pump Inhibitor (EPI), Minimum Inhibitory Concentration [3] | Levofloxacin MIC Against P. aeruginosa PAM1001 in Presence of Efflux Pump Inhibitor (EPI), Minimum Inhibitory Concentration (Table 4, EPI Conc. 0 μg/ml) | Levofloxacin MIC Against P. aeruginosa PAM1001 in Presence of Efflux Pump Inhibitor (EPI), Minimum Inhibitory Concentration (Table 4, EPI Conc. 0.625 μg/ml) | also measured |
| --- | --- | --- | --- | --- | --- | --- | --- | --- | --- | --- | --- | --- | --- | --- | --- | --- | --- | --- | --- | --- | --- |
| D-Ornithyl-D-phenylalanine quinoline-3-amide [Compound 7 (Table 2)] | 4 µg/mL | 4 µg/mL | 4 µg/mL | 2 µg/mL | 0.50 µg/mL | 4 µg/mL | 1 µg/mL | 4 µg/mL | 4 µg/mL | 0.25 µg/mL | 0.06 µg/mL | 0.06 µg/mL | 0.06 µg/mL | 4 µg/mL | 4 µg/mL | 0.015 µg/mL | 0.015 µg/mL | 0.03 µg/mL | 4 µg/mL | 4 µg/mL | Levofloxacin MIC Against P. aeruginosa PAM1001 in Presence of Efflux Pump Inhibitor (EPI), Minimum Inhibitory Concentration (Table 4, EPI Conc. 5 μg/ml): 0.06 µg/mL; Levofloxacin MIC Against P. aeruginosa PAM1001 in Presence of Efflux Pump Inhibitor (EPI), Minimum Inhibitory Concentration (Table 4, EPI Conc. 10 μg/ml): 0.03 µg/mL; Levofloxacin MIC Against P. aeruginosa PAM1001 in Presence of Efflux Pump Inhibitor (EPI), Minimum Inhibitory Concentration (Table 4, EPI Conc. 40 μg/ml): 0.03 µg/mL; Levofloxacin MIC Against P. aeruginosa PAM1001 in Presence of Efflux Pump Inhibitor (EPI), Minimum Inhibitory Concentration [4]: 0.03 µg/mL |
| D-Ornithyl-β-(N-cyclohexylmethyl)alanine 2-naphthylamide [Compound 17 (Table 3)] | 4 µg/mL | 4 µg/mL | 0.06 µg/mL | 0.06 µg/mL | 0.015 µg/mL | 4 µg/mL | 0.03 µg/mL | 4 µg/mL | 4 µg/mL | 4 µg/mL | 0.50 µg/mL | 0.015 µg/mL | 0.06 µg/mL | 4 µg/mL | 4 µg/mL | 2 µg/mL | 0.50 µg/mL | 0.125 µg/mL | 4 µg/mL | 4 µg/mL | Levofloxacin MIC Against P. aeruginosa PAM1001 in Presence of Efflux Pump Inhibitor (EPI), Minimum Inhibitory Concentration (Table 2, EPI Conc. […]): 4 µg/mL; Levofloxacin MIC Against P. aeruginosa PAM1001 in Presence of Efflux Pump Inhibitor (EPI), Minimum Inhibitory Concentration (Table 3, EPI Conc. 40 μg/ml): 0.125 µg/mL; Levofloxacin MIC Against P. aeruginosa PAM1001 in Presence of Efflux Pump Inhibitor (EPI), Minimum Inhibitory Concentration (Table 3, EPI Conc. […]): 4 µg/mL; Levofloxacin MIC Against P. aeruginosa PAM1001 in Presence of Efflux Pump Inhibitor (EPI), Minimum Inhibitory Concentration (Table 4, EPI Conc. 5 μg/ml): 4 µg/mL; Levofloxacin MIC Against P. aeruginosa PAM1001 in Presence of Efflux Pump Inhibitor (EPI), Minimum Inhibitory Concentration (Table 4, EPI Conc. 10 μg/ml): 2 µg/mL; Levofloxacin MIC Against P. aeruginosa PAM1001 in Presence of Efflux Pump Inhibitor (EPI), Minimum Inhibitory Concentration (Table 4, EPI Conc. 40 μg/ml): 0.125 µg/mL; Levofloxacin MIC Against P. aeruginosa PAM1001 in Presence of Efflux Pump Inhibitor (EPI), Minimum Inhibitory Concentration (Table 4, EPI Conc. […]): 4 µg/mL; Levofloxacin MIC Against P. aeruginosa PAM1001 in Presence of Efflux Pump Inhibitor (EPI), Minimum Inhibitory Concentration [4]: 1 µg/mL |
| D-Ornithyl-β-(N-phenylpropyl)alanine quinoline-3-amide [Compound 22 (Table 3)] | 4 µg/mL | 4 µg/mL | 2 µg/mL | 1 µg/mL | 0.06 µg/mL | 4 µg/mL | 0.50 µg/mL | 4 µg/mL | 4 µg/mL | 2 µg/mL | 1 µg/mL | 0.06 µg/mL | 0.125 µg/mL | 4 µg/mL | 4 µg/mL | 1 µg/mL | 0.50 µg/mL | 0.25 µg/mL | 4 µg/mL | 4 µg/mL | Levofloxacin MIC Against P. aeruginosa PAM1001 in Presence of Efflux Pump Inhibitor (EPI), Minimum Inhibitory Concentration (Table 2, EPI Conc. […]): 4 µg/mL; Levofloxacin MIC Against P. aeruginosa PAM1001 in Presence of Efflux Pump Inhibitor (EPI), Minimum Inhibitory Concentration (Table 3, EPI Conc. 40 μg/ml): 0.015 µg/mL; Levofloxacin MIC Against P. aeruginosa PAM1001 in Presence of Efflux Pump Inhibitor (EPI), Minimum Inhibitory Concentration (Table 4, EPI Conc. 5 μg/ml): 1 µg/mL; Levofloxacin MIC Against P. aeruginosa PAM1001 in Presence of Efflux Pump Inhibitor (EPI), Minimum Inhibitory Concentration (Table 4, EPI Conc. 10 μg/ml): 0.125 µg/mL; Levofloxacin MIC Against P. aeruginosa PAM1001 in Presence of Efflux Pump Inhibitor (EPI), Minimum Inhibitory Concentration (Table 4, EPI Conc. 40 μg/ml): 0.125 µg/mL; Levofloxacin MIC Against P. aeruginosa PAM1001 in Presence of Efflux Pump Inhibitor (EPI), Minimum Inhibitory Concentration [4]: 0.125 µg/mL |
